# Assay results reported in patent publication US9540337B2, “Gamma-glutamyl transpeptidase inhibitors and methods of use” (The Board of Regents of the University of Oklahoma, priority 2012, dated 2017).
# Experiments:
# hGGT = target: T1, hGGT (Homo sapiens, UniProt P19440); test: L-Glutamate Release Assay (Hydrolysis of GSH); assay type: biochemical
# T1 construct: lacking the transmembrane domain; made in house; host or cells: Pichia pastoris
# Procedure: L-Glutamate Release Assay (Hydrolysis of GSH): This assay measures the production of glutamate from the hydrolysis of GSH by GGT enzyme and has been described in detail previously. The concentration of the substrate, GSH, was varied from 5 μM to 20 μM. The concentration of the inhibitors, OU749 and its analogs, were varied from 15.6 μM to 250 μM. The reaction was initiated with the addition of 10 mU hGGT. […] All compounds were also evaluated as inhibitors of glutamate dehydrogenase, the enzyme in the second half of the L-glutamate release assay. None of the compounds in this study inhibited glutamate dehydrogenase.
# [1] = system: human GGT in NIH3T3^GGT cells; test: Catabolism of extracellular GSH by NIH3T3 cells transfected with human GGT; assay type: cell-based; details: Compound 6 100 μM, 20 μM GSH, one hour; 60 min
# Procedure: (§1) Cell Lines: 786-0 cells (ATCC CRL-1932), a human renal adenocarcinoma cell line, were grown in Dulbecco's Modified Eagle's Medium (DMEM) supplemented with 10% fetal bovine serum (FBS) and penicillin/streptomycin (50 units/ml, 50 μg/ml). NIH3T3 cells (ATCC CRL 1658) which are GGT-negative and NIH3T3 cells expressing hGGT [described previously were grown in DMEM/F12 media supplemented with 5% FBS and 0.2 mg/ml G418.
# (§2) Catabolism of Extracellular GSH: 786-O and NIH3T3 cells were plated in 96-well plates at a density of 5×10^3 cells/well. After 24 hours, the media was changed to 100 μl cysteine-free DMEM/F12 supplemented with either 20 μM GSH or 20 μM GSH and 100 μM compound 6. After one hour, 50 μl of media was removed and immediately acidified with 5 μl ice-cold 43.1% 5-sulfosalicylic acid. After 10 minutes on ice, the solution was neutralized with 15 μl of 1 M NaOH. The GSH concentration was determined by the method of Tietze.
# [2] = Cytotoxicity in dividing 786-O cells (MTT assay, 72 hours); assay type: cell-based, human; details: human, 786-o cells, dividing 786-O cells, 72 hours; read-out: LD50
# Procedure: as §1
# (§3) Cytotoxicity Assays: 786-0 cells were plated at 10^3 cells/well in a 96-well plate in DMEM supplemented with 10% FBS and penicillin/streptomycin (50 units/ml, 50 μg/ml). After 24 hours, the media was changed to fresh media containing OU749 analogs. A 100 mM stock of OU749 and each of its analogs were made in DMSO then diluted in DMEM. Control wells were treated with equivalent concentrations of DMSO. Cell viability was determined 72 hours after the addition of the inhibitors by the MTT assay. For the toxicity of the OU749 and its analogs in 786-0 cells, all determinations were done in triplicate. The LD50 of each compound and the standard deviation (S.D.) were calculated with a Prism log (inhibitor) versus normalized response (variable slope) curve fit (Prism, GraphPad Software Inc., San Diego, Calif.).
# 786-0 cells = test: as above; assay type: cell-based, human
# Procedure: as §1, §3
# Human GGT1 (hGGT) [3] = target: T2, Human GGT1 (hGGT) (Homo sapiens, UniProt P19440); test: L-GpNA Transpeptidation Assay with GlyGly as acceptor; assay type: biochemical; set-up: lacking the transmembrane domain; made in house; host or cells: Pichia pastoris; details: Table 2
# Procedure: Transpeptidation Reaction: The same assay buffer was used for both the hydrolysis reaction and the transpeptidation reaction. The transpeptidation reaction included 40 mM glycylglycine (glygly, Sigma, St. Louis, Mo.) as the acceptor. […] The concentration of L-GpNA was 3 mM for experiments in which the concentration of glygly was varied. To initiate the transpeptidation reaction, 4 mU GGT were added.
# 1. […] 3 and 4. […] 5 (25).
# L-GpNA Transpeptidation Assay: The assay has been described previously. […] The concentration of L-GpNA was 3 mM for experiments in which the concentration of GlyGly was varied. To initiate the transpeptidation reaction, 4 mU GGT were added.
# Human GGT1 (hGGT) [4] = target: T2, Human GGT1 (hGGT); test: D-GpNA Hydrolysis Assay (release of pNA, 405 nm, pH 7.4)
# Procedure: (§4) Enzyme Isolation: Human GGT1 (P19440), lacking the transmembrane domain, was expressed in Pichia pastoris and isolated as previously described (14). […] One unit of GGT activity was defined as the amount of enzyme that released 1 μmol of paranitroaniline/min at 37° C. at pH 7.4 in the transpeptidation reaction.
# The reaction was initiated with the addition of 19 mU GGT. The reaction was incubated at 37° C. and monitored continuously at 405 nm by a Bio-Rad model 680 microplate reader with Microplate Manager 5.2 software (Bio-Rad, Hercules, Calif.).
# Data Analysis: Samples in each experiment were run in triplicate. Each inhibitor was evaluated in two or more independent experiments. Double reciprocal plots were generated to assess data quality and determine the correct rate equation for data fitting. Data were fitted using the proper rate equation and the Marquardt-Levenberg algorithm supplied with the Enzfitter program (BIOSOFT, Cambridge, UK). Kinetic parameters with standard errors were estimated using a simple weighting method.
# Data adhering to Michaelis-Menten Kinetics were fitted to eq. 1. Data for initial rate patterns with D-, L-GpNA varied at different fixed levels of glygly were fitted to eq. […] Data for competitive and uncompetitive inhibition were fitted to eqs. 3 and 4. Data for the dependence of Vmax and Vmax/KD-GpNA on the concentration of activator were fitted using eq. 5 (25).
# In eqs 1-6, Vmax are the initial and maximum rates, respectively, Ka and Kb are Michaelis constants for substrates A and B, respectively, and Kis and Kii are slope and intercept inhibition constants. In eq. 5, a is the value of Vmax or Vmax/KD-GpNA at zero activator/inhibitor, KID is the activation or inhibition constant, and KIN is a constant that causes the parameter to go to a constant value at infinite concentrations of X, the activator/inhibitor. The product a(KID/KIN) is the value of Vmax or Vmax/KD-GpNA at infinite activator/inhibitor (25). Data for noncompetitive inhibition were fitted to eq. 6. Data for the dependence of Vmax and Vmax/KD-GpNA on the concentration of activator were fitted using […].
# as §4, with “hGGT” for “Human GGT1”, “described.” for “described (14).”, “reaction with L-GpNA.” for “reaction.”
# D-GpNA Hydrolysis Assay: The assay was carried out as previously described. […] The reaction was initiated with the addition of 19 mU GGT as determined by the L-GpNA transpeptidation assay. The reaction was incubated at 37° C. and monitored continuously at 405 nm.
# [5] = system: hGGT expressed on the surface of 786-0 cells; test: Catabolism of extracellular GSH by 786-O cells; assay type: cell-based, human; details: 100 μM Compound 6, 20 μM GSH, one hour; 60 min
# Procedure: as §1, §2
# T2 sequence (P19440 381-569 limits assumed): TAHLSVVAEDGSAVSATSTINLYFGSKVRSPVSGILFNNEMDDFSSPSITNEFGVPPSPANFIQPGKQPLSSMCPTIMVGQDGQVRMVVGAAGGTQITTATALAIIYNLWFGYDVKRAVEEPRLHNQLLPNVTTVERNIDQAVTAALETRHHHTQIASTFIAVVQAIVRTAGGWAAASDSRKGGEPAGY
# T2 sequence (P19440 27-380 limits assumed): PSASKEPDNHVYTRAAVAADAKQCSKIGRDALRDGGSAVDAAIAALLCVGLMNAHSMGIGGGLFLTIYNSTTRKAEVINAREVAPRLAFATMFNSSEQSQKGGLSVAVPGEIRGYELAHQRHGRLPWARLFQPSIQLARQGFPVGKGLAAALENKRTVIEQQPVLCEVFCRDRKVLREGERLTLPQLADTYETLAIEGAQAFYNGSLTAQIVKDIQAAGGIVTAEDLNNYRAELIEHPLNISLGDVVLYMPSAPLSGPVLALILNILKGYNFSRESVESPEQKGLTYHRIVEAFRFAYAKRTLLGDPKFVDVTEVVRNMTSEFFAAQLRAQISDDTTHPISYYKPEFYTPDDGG
# T1 sequence (P19440 381-569 limits assumed): as the sequence (P19440 381-569 limits assumed) above
# T1 sequence (P19440 27-380 limits assumed): as the sequence (P19440 27-380 limits assumed) above
smiles,measurement,setting,value
COc1ccc(Cc2nnc(NS(=O)(=O)c3cccc4ccccc34)s2)cc1 [Compound 6],Ki,"hGGT; GSH hydrolysis, Table 6, read-out: GSH Kii",96 ± 2 µM
same,fold more potent than OU749 in inhibiting GSH hydrolysis,hGGT; relative to OU749,4 fold
same,reduction of GSH metabolism in the media,[1],59%
same,CC50 at 72 h,[2],~2100 µM
same,fold less toxic (cytotoxic) than OU749,"786-0 cells; LD50 ratio, 786-O cells",more than 16 fold
same,CC50,"786-0 cells; dividing 786-O cells, 72 hours, 4320 min, read-out: LD50 (the source's name)",2090 ± 20 µM
same,Ki,"Human GGT1 (hGGT) [3]; GlyGly varied, 3 mM L-GpNA, read-out: Transpeptidation GlyGly Kis",45.7 ± 3.4 µM
same,Ki,"Human GGT1 (hGGT) [3]; L-GpNA varied, 40 mM GlyGly, read-out: Transpeptidation L-GpNA Kii",74.9 ± 3.6 µM
same,Ki,"Human GGT1 (hGGT) [4]; read-out: Hydrolysis D-GpNA Kii, D-GpNA substrate, Table 2",161 ± 4.5 µM
same,fold less effective than OU749 in inhibiting hydrolysis of D-GpNA,Human GGT1 (hGGT) [4]; relative to OU749,2-5 fold
same,block of hGGT catabolism of extracellular GSH,[5],51%
